Read-outs that look alike come from different tables or passages of the source.
Experiments:
Myzus persicae = Myzus persicae - sachet test; assay type: in vivo; details: 100% = all animals killed
Procedure: Myzus persicae—Sachet Test Solvent: 2% by vol. of N-methylpyrrolidone • 2% by vol. of diacetone alcohol To produce an appropriate active ingredient formulation, the active ingredient is mixed with the specified amounts of solvent and the concentrate is diluted to the desired concentration with water. The active ingredient formulation is added to a specific nutrient medium in the desired concentration by pipetting. This plate is sealed and combined with a further plate populated with the green peach aphid (Myzus persicae). After the desired time, the kill in % is determined. 100% means that all the animals have been killed; 0% means that no animals have been killed.

[1] = log P determination by LC-MS in the acidic range; assay type: physicochemical
Excerpt: The LC-MS determination in the acidic range is effected at pH 2.7 using 0.1% aqueous formic acid and acetonitrile (contains 0.1% formic acid) as eluents, linear gradient from 10% acetonitrile to 95% acetonitrile. Alternatively, the determination is effected in the acidic range at pH 2.3 using 0.1% aqueous phosphoric acid and acetonitrile as eluents; linear gradient from 10% acetonitrile to 95% acetonitrile.

[2] = application rate of 6 ppm in nutrient medium
[3] = application rate of 30 ppm in nutrient medium
[4] = Table 2, compounds of the formula (I-2), acidic range pH 2.7 or pH 2.3
[5] = Myzus persicae, application rate of 30 ppm in nutrient medium, read-out: efficacy (kill in %)
[6] = pH 2.7, LC-MS in the acidic range, read-out: log P (acid)
[7] = pH 2.7, values given in the synthesis examples and NMR lists, read-out: HPLC-MS: log P
[8] = Table 3, HPLC on reversed-phase column (C 18), 55° C., acidic range (pH 2.7 or pH 2.3)

| SMILES | efficacy (kill in %) (Myzus persicae; [2]) [%] | efficacy (kill in %) (Myzus persicae; [3]) [%] | log P (acid) ([1]; LC-MS in the acidic range) | further results |
| --- | --- | --- | --- | --- |
| Cc1cc(NC(=O)c2cccnc2)nn1C(=O)NC(C)(C)C [Compound I-1-319] | 100 | 100 | 1.99 | – |
| Cc1cc(NC(=O)c2cccnc2)nn1Cc1ccc(Cl)nc1 [Compound I-1-21] | 100 | 100 | 1.42 | – |
| N#Cc1cc(NC(=O)c2cccnc2)nn1Cc1ncccn1 [Compound I-1-269] | 100 | 100 | 1.0 | – |
| Cc1nc(NC(=O)c2cccnc2)n[nH]1 [Compound I-2-1] | – | 100 | – | log P (acid) [1, 4]: <−0.23 |
| CCc1nc(NC(=O)c2cccnc2)nn1C [Compound I-2-17] | – | 100 | – | log P (acid) [1, 4]: 0.01 |
| Cc1cc(NC(=O)c2cccnc2)nn1C[S+]([O-])c1ncccn1 (stereo not shown) [Compound I-1-235] | 80 | 100 | 0.5 | – |
| Cc1cc(C)nc(-n2nc(NC(=O)c3cccnc3)cc2C)n1 [Compound I-1-139] | 100 | 100 | 1.6 | – |
| CSCn1nc(NC(=O)c2cccnc2)cc1C [Compound I-1-241] | 100 | 100 | 1.17 | – |
| Cc1cc(NC(=O)c2cccnc2)nn1C(C)(C)C#N [Compound I-1-219] | 100 | 100 | 1.31 | – |
| Cc1cc(NC(=O)c2cccnc2)nn1CC=C(Cl)Cl [Compound I-1-238] | 100 | 100 | 1.83 | – |
| COc1ccc(Cn2ccc(NC(=O)c3cccnc3)n2)cc1 [Compound I-1-78] | – | 100 | 1.55 | – |
| C=CCn1nnc(NC(=O)c2cccnc2)n1 [Compound I-4-8] | 100 | 100 | – | log P (acid) ([1]; Table 4, HPLC on reversed-phase column (C 18), 55° C., acidic range (pH 2.7 or pH 2.3)): 0.60 |
| Cc1cc(NC(=O)c2cccnc2)nn1C(=O)NC(C)C(F)(F)F (stereo not shown) [Compound I-1-307] | 100 | 100 | 1.89 | – |
| Cc1cn(Cc2ncccn2)nc1NC(=O)c1cccnc1 [Compound I-1-136, N-[4-Methyl-1-(pyrimidin-2-ylmethyl)-1H-pyrazol-3-yl]nicotinamide] | – | – | – | pest or weed control at 30 ppm (Myzus persicae; [5]): 100%; chromatographic logP [1, 6]: 0.44; chromatographic logP [1, 7]: 0.44 |
| Cc1cc(NC(=O)c2cccnc2)nn1CN1CCS/C1=N/C#N [Compound I-1-142] | 100 | 100 | 1.08 | – |
| Cc1cn(CC#N)nc1NC(=O)c1cccnc1 [Compound I-1-199] | – | 100 | 0.37 | – |
| Cc1cc(NC(=O)c2cccnc2)nn1Cc1ccc(F)cc1 [Compound I-1-62] | 100 | 100 | 1.88 | – |
| CC(C)n1ncc(NC(=O)c2cccnc2)n1 [Compound I-3-10] | – | 100 | – | log P (acid) [1, 8]: 1.09 |
| Cn1nc(NC(=O)c2cccnc2)cc1OC(F)F [Compound I-1-111] | 100 | 100 | 0.89 | – |
| Cc1cc(NC(=O)c2cccnc2)nn1C(=O)NCCOc1c(F)cccc1F [Compound I-1-171] | 80 | 100 | 2.21 | – |
| Cc1cc(C)cc(-n2nc(NC(=O)c3cccnc3)cc2C)c1 [Compound I-1-208] | – | 100 | 2.4 | – |
| CC(C)(C)c1ccc(Cn2ccc(NC(=O)c3cccnc3)n2)cc1 [Compound I-1-75] | – | 100 | 2.68 | – |
| Cc1ccc(C(=O)Nc2cc(C)n(Cc3ccccc3)n2)cn1 [Compound I-1-80] | 80 | 100 | 1.71 | – |
| Cc1cc(NC(=O)c2cccnc2)nn1C(=O)NCCS(C)(=O)=O [Compound I-1-309] | 100 | 100 | 0.97 | – |
| Cc1nn(-c2ccccn2)nc1NC(=O)c1cccnc1 [Compound I-3-1, N-[5-Methyl-2-(pyridin-2-yl)-2H-1,2,3-triazol-4-yl]nicotinamide] | – | – | – | pest or weed control at 6 ppm (Myzus persicae; Myzus persicae, application rate of 6 ppm in nutrient medium, read-out: efficacy (kill in %)): 100%; pest or weed control at 30 ppm (Myzus persicae; [5]): 100%; chromatographic logP ([1]; reversed-phase HPLC column (C18), pH 2.7, Table 3, HPLC on reversed-phase column (C 18), 55° C., acidic range (pH 2.7 or pH 2.3), read-out: log P (acid)): 1.08; chromatographic logP ([1]; reversed-phase HPLC column (C18), pH 2.7, values given in the synthesis examples and NMR lists, read-out: HPLC-MS: log P): 1.08 |

| SMILES | efficacy (kill in %) (Myzus persicae; [2]) [%] | efficacy (kill in %) (Myzus persicae; [3]) [%] | log P (acid) ([1]; LC-MS in the acidic range) | further results |
| --- | --- | --- | --- | --- |
| Cc1cc(NC(=O)c2cccnc2)nn1-c1ccc(C(F)(F)F)cn1 [Compound I-1-45] | 100 | 100 | 2.64 | – |
| O=C(Nc1cc(Cl)n(-c2ccccc2)n1)c1cccnc1 [Compound I-1-274] | – | 100 | 2.1 | – |
| CNS(=O)(=O)n1nc(NC(=O)c2cccnc2)cc1C [Compound I-1-257] | – | 100 | 0.55 | – |
| Cc1cc(NC(=O)c2cccnc2)nn1C(=O)NCc1ccc(F)cc1 [Compound I-1-328] | 100 | 100 | 2.12 | – |
| Cc1cc(NC(=O)c2ccnnc2)nn1Cc1ccccc1 [Compound I-1-79, N-(1-Benzyl-5-methyl-1H-pyrazol-3-yl)pyridazine-4-carboxamide] | – | – | – | pest or weed control at 30 ppm (Myzus persicae; [5]): 100%; chromatographic logP [1, 6]: 1.67; chromatographic logP [1, 7]: 1.67 |
| Cc1ccc(C(=O)Nc2cc(C)n(Cc3cccc(F)c3)n2)cn1 [Compound I-1-108] | – | 100 | 1.79 | – |
| Cc1cc(NC(=O)c2cccnc2)nn1Cc1ccc(Cl)c(Cl)n1 [Compound I-1-301] | – | 100 | 2.06 | – |
| Cc1cc(NC(=O)c2cccnc2)nn1Cc1ccc2nsnc2c1 [Compound I-1-339] | – | 100 | 1.61 | – |
| CSc1c(C#N)c(NC(=O)c2cccnc2)nn1C [Compound I-1-270] | – | 80 | 0.96 | – |
| Cc1cc(NC(=O)c2cccnc2)nn1Cc1cn2cc(Cl)ccc2n1 [Compound I-1-160] | 100 | 100 | 1.03 | – |
| Cc1cc(NC(=O)c2cccnc2)nn1C(=O)NCc1ncccn1 [Compound I-1-334] | 100 | 100 | 0.95 | – |
| O=C(Nc1cnn(-c2ncccc2Br)n1)c1cccnc1 [Compound I-3-7] | 80 | 100 | – | log P (acid) [1, 8]: 1.33 |
| O=C(Nc1cc(Cl)n(Cc2ncccn2)n1)c1cccnc1 [Compound I-1-197] | 100 | 100 | 1.04 | – |
| CSc1nc(NC(=O)c2cccnc2)nn1C [Compound I-2-26] | – | 100 | – | log P (acid) [1, 4]: 0.32 |
| Cn1ncc(NC(=O)c2cccnc2)n1 [Compound I-3-2] | – | 100 | – | log P (acid) [1, 8]: 0.38 |
| Cc1cc(NC(=O)c2cccnc2)nn1-c1ccc(Cl)cc1Cl [Compound I-1-207] | 100 | 100 | 2.36 | – |
| Cc1cc(NC(=O)c2cccnc2)nn1Cc1cn2nc(Cl)ccc2n1 [Compound I-1-351] | – | 100 | 1.42 | – |
| Cc1cc(NC(=O)c2cccnc2)nn1C(=O)NC(C)c1ccc(F)cc1 (stereo not shown) [Compound I-1-332] | 100 | 100 | 2.28 | – |
| COC(=O)c1cc(NC(=O)c2cccnc2)nn1C [Compound I-1-138] | – | 100 | 1.05 | – |
| Cc1cc(NC(=O)c2cccnc2)nn1C(=O)NCc1ccccc1 [Compound I-1-322] | 100 | 100 | 1.97 | – |
| Cc1cc(N(C)C(=O)c2cccnc2)nn1CC1CC1 [Compound I-1-177] | – | 100 | 1.27 | – |
| O=C(Nc1ccn(Cc2cc(F)ccc2F)n1)c1cccnc1 [Compound I-1-90] | 100 | 100 | 1.65 | – |
| CCCCNC(=O)n1nc(NC(=O)c2cccnc2)cc1C [Compound I-1-315] | 100 | 100 | 1.92 | – |
| Cc1cc(NC(=O)c2cccnc2)nn1C(=O)NCc1ccc(Cl)cc1 [Compound I-1-325] | 100 | 100 | 2.34 | – |
